The text below walks through data of ChEMBL document CHEMBL1135364, “Synthesis and structure-activity relationships of oxime neurokinin antagonists: discovery of potent arylamides” (Bioorg Med Chem Lett, 2002).

Experiment [1] deals with T1, Substance-K receptor (Homo sapiens, UniProt P21452).
T1 sequence (P21452 whole entry): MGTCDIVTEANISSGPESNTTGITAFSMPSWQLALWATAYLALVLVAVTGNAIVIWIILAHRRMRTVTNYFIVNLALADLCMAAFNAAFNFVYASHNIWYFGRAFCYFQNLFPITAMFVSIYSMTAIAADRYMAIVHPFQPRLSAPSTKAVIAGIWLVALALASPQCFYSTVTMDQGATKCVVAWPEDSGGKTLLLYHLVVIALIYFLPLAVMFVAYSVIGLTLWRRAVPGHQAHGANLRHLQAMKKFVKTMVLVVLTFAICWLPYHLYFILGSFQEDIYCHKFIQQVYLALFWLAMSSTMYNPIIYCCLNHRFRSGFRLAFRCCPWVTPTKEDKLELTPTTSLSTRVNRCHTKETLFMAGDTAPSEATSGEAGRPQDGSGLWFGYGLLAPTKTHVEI
The experiment can be described thus: Binding affinity test against Neurokinin 2 (NK2) receptor.

The target of experiment [2] is T2, Substance-P receptor (Homo sapiens, UniProt P25103). The experiment can be described thus: Affinity for human Neurokinin 1 (NK1) receptor expressed in CHO cells at 1 uM. The format is cell-based.
T2 sequence (P25103 whole entry): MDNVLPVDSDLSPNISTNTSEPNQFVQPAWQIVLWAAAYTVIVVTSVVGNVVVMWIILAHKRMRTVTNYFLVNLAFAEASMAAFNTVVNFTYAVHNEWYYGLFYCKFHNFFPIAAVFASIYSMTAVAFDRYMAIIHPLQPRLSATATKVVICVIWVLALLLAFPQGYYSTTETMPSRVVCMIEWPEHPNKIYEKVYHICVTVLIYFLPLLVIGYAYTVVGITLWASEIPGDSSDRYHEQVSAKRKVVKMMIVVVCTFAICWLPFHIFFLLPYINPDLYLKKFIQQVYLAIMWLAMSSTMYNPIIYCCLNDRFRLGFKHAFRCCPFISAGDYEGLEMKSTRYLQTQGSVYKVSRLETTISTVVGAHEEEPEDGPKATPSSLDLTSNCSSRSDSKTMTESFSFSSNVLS
Experiment [3] has as its target T2, Substance-P receptor. In words: Tested for binding affinity against neurokinin 1 (NK1) receptor.

`CO/N=C(\COCC1CCCCC1)C(CCN1CCC(O)(c2ccccc2)CC1)c1ccc(Cl)c(Cl)c1` (configuration not stated) displayed a Ki in experiment [1] of 13 nM. Further, in experiment [2], the inhibition stood at 21%.
With `CO/N=C(\COCC12CC3CC(CC(C3)C1)C2)C(CCN1CCC(O)(c2ccccc2)CC1)c1ccc(Cl)c(Cl)c1` (configuration not stated), the Ki in experiment [1] came to 7 nM. The compound further showed an inhibition in experiment [2] of 0%.
Turning to `CO/N=C(\CO/C=C/c1cc(C(F)(F)F)cc(C(F)(F)F)c1)C(CCN1CCC(O)(c2ccccc2)CC1)c1ccc(Cl)c(Cl)c1` (configuration not stated), the affinity in experiment [1] corresponds to a Ki of 100 nM. The compound also had an inhibition in experiment [2] of 20%.
`CO/N=C(\COCc1ccc(-c2ccccc2)cc1)C(CCN1CCC(O)(c2ccccc2)CC1)c1ccc(Cl)c(Cl)c1` (configuration not stated) came in with a Ki in experiment [1] of 38 nM. The inhibition in experiment [2] is 2%.
The like results for `CO/N=C(\COCc1ccccc1C)C(CCN1CCC(O)(c2ccccc2)CC1)c1ccc(Cl)c(Cl)c1` (configuration not stated) were, in that order, 136 nM and 34%.
With `CO/N=C(\C(C)OCc1cc(C(F)(F)F)cc(C(F)(F)F)c1)C(CCN1CCC(O)(c2ccccc2)CC1)c1ccc(Cl)c(Cl)c1` (configuration not stated), the results for the Ki in experiment [1] and in experiment [3] were 157 nM and 75 nM, respectively.
For the compound `CO/N=C(\CN(C)C(=O)c1cc(Cl)cc(Cl)c1)C(CCN1CCC(O)(c2ccccc2)CC1)c1ccc(Cl)c(Cl)c1` (configuration not stated), the Ki amounted to 4 nM in experiment [1] and 2 nM in experiment [3].
The like results for `CO/N=C(\CN(C)Cc1cc(C(F)(F)F)cc(C(F)(F)F)c1)C(CCN1CCC(O)(c2ccccc2)CC1)c1ccc(Cl)c(Cl)c1` (configuration not stated) were, in that order, 22 nM and 42 nM.
For `CO/N=C(\CN(C)C(=O)c1cc(C)nc(N(C)C)c1)C(CCN1CCC(O)(c2ccccc2)CC1)c1ccc(Cl)c(Cl)c1` (configuration not stated) the same measures were 1 nM and 2 nM.
With `CO/N=C(\COC/C=C/c1cc(C(F)(F)F)cc(C(F)(F)F)c1)C(CCN1CCC(O)(c2ccccc2)CC1)c1ccc(Cl)c(Cl)c1` (configuration not stated), the Ki in experiment [1] stood at 20 nM. The same compound returned an inhibition in experiment [2] of 36%.
Regarding `CO/N=C(\C(=O)N(C)Cc1cc(C(F)(F)F)cc(C(F)(F)F)c1)C(CCN1CCC(O)(c2ccccc2)CC1)c1ccc(Cl)c(Cl)c1` (configuration not stated), the Ki in experiment [1] turned out to be 167 nM; in experiment [3], 6 nM.
With `CO/N=C(\CNCc1cc(C(F)(F)F)cc(C(F)(F)F)c1)C(CCN1CCC(O)(c2ccccc2)CC1)c1ccc(Cl)c(Cl)c1` (configuration not stated), the Ki in experiment [1] came to 130 nM; in experiment [3], 50 nM.
`CO/N=C(\COCc1ccc(C)cc1)C(CCN1CCC(O)(c2ccccc2)CC1)c1ccc(Cl)c(Cl)c1` (configuration not stated) gave a Ki in experiment [1] of 9 nM. In experiment [2], this compound showed an inhibition of 48%.
For `CO/N=C(\COCc1ccc2nonc2c1)C(CCN1CCC(O)(c2ccccc2)CC1)c1ccc(Cl)c(Cl)c1` (configuration not stated), the Ki in experiment [1] came out at 17 nM. In experiment [2], this compound registered an inhibition of 29%.
For `CO/N=C(\COCc1ccc2ccc(C(F)(F)F)nc2c1)C(CCN1CCC(O)(c2ccccc2)CC1)c1ccc(Cl)c(Cl)c1` (configuration not stated) the same measures were 20 nM and 23%.
`CO/N=C(\CN(C)C(=O)Nc1cc(C(F)(F)F)cc(C(F)(F)F)c1)C(CCN1CCC(O)(c2ccccc2)CC1)c1ccc(Cl)c(Cl)c1` (configuration not stated): the figures for the Ki in experiment [1] and in experiment [3] were 8 nM and 5 nM, respectively.
For `CO/N=C(\CN(C)C(=O)c1cncc(Br)c1)C(CCN1CCC(O)(c2ccccc2)CC1)c1ccc(Cl)c(Cl)c1` (configuration not stated), the Ki was found to be 4 nM in experiment [1] and 7 nM in experiment [3].
For `CO/N=C(\CN(C)S(=O)(=O)c1cc(C(F)(F)F)cc(C(F)(F)F)c1)C(CCN1CCC(O)(c2ccccc2)CC1)c1ccc(Cl)c(Cl)c1` (configuration not stated) the same measures were 286 nM and 435 nM.
As to `CO/N=C(\COCc1cc(Br)cc(Br)c1)C(CCN1CCC(O)(c2ccccc2)CC1)c1ccc(Cl)c(Cl)c1` (configuration not stated), the Ki came out at 15 nM in experiment [1] and 10 nM in experiment [3].
For the compound `CO/N=C(\COC(=O)c1cc(C(F)(F)F)cc(C(F)(F)F)c1)C(CCN1CCC(O)(c2ccccc2)CC1)c1ccc(Cl)c(Cl)c1` (configuration not stated), the Ki in experiment [1] amounted to 25 nM; in experiment [3], 168 nM.
Take `CO/N=C(\CN(C)C(=O)c1cc(C(F)(F)F)cc(C(F)(F)F)c1)C(CCN1CCC(O)(c2ccccc2)CC1)c1ccc(Cl)c(Cl)c1` (configuration not stated): the Ki is 9 nM in experiment [1] and 4 nM in experiment [3].

As a reminder, the Ki is a measure of affinity in units of concentration, obtained from inhibition or displacement. A high value points to weaker binding. A word on the inhibition: it is the change of the read-out against control, counted positive when it falls. Lower therefore signals little suppression.
